Measurements reported in PubChem BioAssay (NCI).
Where “and” joins values, the source holds several entries; their conditions need not be identical. Equal entries are not always repeated.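 These data come from cells grown in 96-well plates and exposed to compound for 48 hours at five concentrations. GI50 is the concentration that inhibits growth by half. TGI: concentration producing complete growth inhibition.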

Experiments:
Test in all cases: DTP human tumour cell line panel, 48 h
[1] = tested on: EKVX NSCLC
[2] = tested on: SK-OV-3 ovarian
[3] = tested on: NCI-H460 lung
[4] = tested on: KM12 colon
[5] = tested on: SN12C renal
[6] = tested on: HL-60(TB) leukemia
[7] = tested on: HOP-62 NSCLC
[8] = tested on: NCI-H522 lung
[9] = tested on: HCT-116 colon
[10] = tested on: SK-MEL-5 melanoma

SMILES	GI50 [1] [µM]	TGI [1] [µM]	GI50 [2] [µM]	TGI [2]	GI50 [3] [nM]	TGI [3]	GI50 [4] [nM]	TGI [4]	GI50 [5] [µM]	TGI [5]	GI50 [6] [nM]	TGI [6]	GI50 [7] [µM]	TGI [7]	GI50 [8] [nM]	TGI [8]	GI50 [9] [nM]	TGI [9]	GI50 [10] [µM]	TGI [10]
OC(Cc1ccncc1)C(Cl)(Cl)Cl (stereo not drawn)	86.3	> 100	> 100	> 100 µM	> 100000	> 100 µM	> 100000	> 100 µM	> 100	> 100 µM	152	60.1 µM	> 100	> 100 µM	> 100000	> 100 µM	–	–	–	–
C=C(C)C(O)CCC1(C)C=Cc2c(c(C)cc3c2[nH]c2ccccc23)O1 (stereo not drawn)	–	–	11	25 µM and 22.9 µM	2330	10.6 µM and 5.86 µM	2000	12.5 µM and 4.32 µM	9.57	25 µM and 21.5 µM	4240	25 µM and 19.9 µM	2.47	9.46 µM and 6.11 µM	3290	11.3 µM and 9.34 µM	9870	25 µM and 21.5 µM	10.1	25 µM and 21.7 µM
COC(=O)c1ccc(-c2nc3cc(Cl)c(Cl)cc3nc2C#N)cc1	> 100	> 100	> 100	> 100 µM	> 100000	> 100 µM	> 100000	> 100 µM	> 100	> 100 µM	–	–	82.4	> 100 µM	> 100000	> 100 µM	> 100000	> 100 µM	> 100	> 100 µM
CCOC(=O)C12CCCC1(O)N(NC(=O)OC(C)(C)C)C(C)=C2C(=O)OC (stereo not drawn)	–	> 100	–	> 100 µM	–	> 100 µM	–	> 100 µM	–	> 100 µM	–	> 100 µM	–	> 100 µM	–	> 100 µM	–	> 100 µM	–	–
O=C(O)CCCSC(=O)Nc1ccc(N=Nc2ccccc2)cc1	–	> 100	–	–	–	> 100 µM	–	> 100 µM	–	> 100 µM	–	–	–	> 100 µM	–	> 100 µM	–	> 100 µM	–	–
CCOC(=O)c1nn2c(nc1=O)sc1ccc3ccccc3c12	–	> 100	–	> 100 µM	–	> 100 µM	–	> 100 µM	–	> 100 µM	–	> 100 µM	–	> 100 µM	–	–	–	> 100 µM	–	> 100 µM
CCN(Cc1cc(Nc2nc(C)cn3c(-c4cn[nH]c4)cnc23)sn1)C(C)(C)CO	0.578	15.2	0.0241	3.38 µM	44	4.59 µM	32.8	10.4 µM	0.0301	10.5 µM	–	–	0.0411	0.688 µM	22.7	2.26 µM	12.7	2.3 µM	0.222	2.08 µM
C[C@]12C[C@H](CCCCCCNCCOC(=O)NCCCc3ccc(N(CCCl)CCCl)cc3)C3=C4CCC(=O)C=C4CCC3C1CC[C@@H]2O (stereo partly drawn)	2.07	4.05	–	–	672	4.08 µM	1870	> 21.6 µM	1.89	3.39 µM	248	0.659 µM	2.2	10.4 µM	1630	3.18 µM	2340	–	1.47	3.02 µM
N.N.N.N.N.NC(=O)c1nn[n-]n1.[Cl-].[Co+3]	> 100	> 100	> 100	> 100 µM	> 100000	> 100 µM	> 100000	> 100 µM	> 100	> 100 µM	> 100000	> 100 µM	> 100	> 100 µM	–	–	> 100000	> 100 µM	> 100	> 100 µM
COC(=O)CC1C[C@H](C#N)N(C(=O)c2ccccc2)C[C@@H]1CC[N+](=O)[O-] (stereo partly drawn)	–	> 100	–	> 100 µM	–	> 100 µM	–	> 100 µM	–	> 100 µM	–	> 100 µM	–	> 100 µM	–	–	–	> 100 µM	–	> 100 µM
CCOC(=O)c1c(C)nc2c(c1N)CC(=O)N2Cc1ccc(OC)cc1	7.91	> 100	–	–	–	–	> 100000	> 100 µM	> 100	> 100 µM	> 100000	> 100 µM	2.1	5.97 µM	> 100000	> 100 µM	–	–	> 100	> 100 µM
CCN(CC)c1c(C(=O)/C=C/c2ccc(Cl)cc2)c(-c2ccccc2)nn(C)c1=O	–	6.87	–	18.7 µM	–	3.67 µM	–	–	–	4.59 µM	–	6.46 µM	–	4.26 µM	–	2.98 µM	–	3.11 µM	–	3.2 µM
CN1CCC2(CC1)ONC1=NCCN12	92.5	> 100	42	> 100 µM	37200	> 100 µM	26600	> 100 µM	15.8	40.2 µM	–	–	52.9	> 100 µM	29300	> 100 µM	32400	> 100 µM	59.8	> 100 µM
C=C1C(=O)O[C@@H]2C[C@@H](C)[C@@H]3C=CC(=O)[C@@]3(C)[C@@H](O)[C@H]12	–	8.89	–	–	–	4.46 µM	–	3.31 µM	–	2.91 µM	–	2.4 µM	–	17.7 µM	–	0.663 µM	–	4.06 µM	–	2.67 µM
O=C1C(Cl)=C(Nc2cccc(F)c2)C(=O)N1Cc1ccc(Cl)cc1	–	–	2.59	17.6 µM	1080	–	2660	19.1 µM	0.825	4.81 µM	–	–	0.974	7.19 µM	3090	13.3 µM	392	2.7 µM	0.403	2.19 µM
COC12C=C/C(=C(/C(=O)OCc3cncnc3)C(=O)CCCCCCCCC3(OC)C=C/C(=C(/C(=O)OCc4cncnc4)C(=O)CCCCCCCC1)O3)O2	0.717	2.39	1.23	5.31 µM	710	1.91 µM	305	1.28 µM	0.404	1.98 µM	387	2.82 µM	0.624	2.97 µM	137	0.408 µM	146	0.433 µM	–	–
O=c1[nH]nnc2c1ncn2C1OC(CO)C(O)C1O (stereo not drawn)	–	–	0.881	> 100 µM	2820	> 100 µM	11800	> 100 µM	38.3	> 100 µM	1390	83.3 µM	10.7	> 100 µM	6490	> 100 µM	7590	> 100 µM	32.9	> 100 µM

SMILES	GI50 [1] [µM]	TGI [1] [µM]	GI50 [2] [µM]	TGI [2]	GI50 [3] [nM]	TGI [3]	GI50 [4] [nM]	TGI [4]	GI50 [5] [µM]	TGI [5]	GI50 [6] [nM]	TGI [6]	GI50 [7] [µM]	TGI [7]	GI50 [8] [nM]	TGI [8]	GI50 [9] [nM]	TGI [9]	GI50 [10] [µM]	TGI [10]
O=C(c1ccccc1)c1ccccc1-c1ccccc1	4.22	> 100	3.54	25.2 µM	3350	18.2 µM	1160	43.3 µM	8.46	> 100 µM	–	–	5.38	> 100 µM	740	4.06 µM	3170	30.1 µM	3.2	12.5 µM
CC(C)Cn1cnc2c(SCc3ccc(Cl)cc3Cl)nc(N)nc21	–	> 100	–	> 100 µM	–	35.4 µM	–	> 100 µM	–	> 100 µM	–	–	–	> 100 µM	–	37 µM	–	> 100 µM	–	22.8 µM
CC1=C(C(=O)Nc2cc(=O)n(C)c(=O)n2C)C(c2ccco2)C(C(=O)Nc2cc(=O)n(C)c(=O)n2C)=C(C)N1	–	> 100	–	–	–	> 100 µM	–	> 100 µM	–	> 100 µM	–	> 100 µM	–	> 100 µM	–	> 100 µM	–	–	–	> 100 µM
NS(=O)(=O)c1ccc(-n2nc(-c3ccc(Cl)cc3)cc2-c2cc(O)ccc2O)cc1	22.6	45.6	–	–	7810	> 100 µM	13400	32.6 µM	8.11	20.6 µM	10000	69 µM	–	–	2580	6.71 µM	–	–	15.2	32.3 µM
Cc1c[n+](=O)c2ccccc2n1[O-]	–	> 100	–	> 100 µM	–	> 100 µM	–	> 100 µM	–	> 100 µM	–	–	–	> 100 µM	–	> 100 µM	–	> 100 µM	–	> 100 µM
COc1ccc(C(=S)N2CCN(c3cccc(C)c3)CC2)cc1OC	7.05	> 100	7.24	> 100 µM	3380	> 100 µM	2820	> 100 µM	6.85	> 100 µM	1830	> 100 µM	5.53	29.4 µM	–	–	3470	> 100 µM	4.55	> 100 µM
CC1(C)C2CCC13C(=O)C1OC3(C2)C2C(=O)c3cc4ccccc4cc3C(=O)C12 (stereo not drawn)	–	–	12.2	67.4 µM	5480	> 100 µM	3790	25.1 µM	19.3	> 100 µM	4890	26.7 µM	7.64	45.3 µM	23100	> 100 µM	12000	> 100 µM	–	–
CCCCCCCCCCCc1nnc(N)o1	–	–	–	> 100 µM	–	> 100 µM	–	> 100 µM	–	> 100 µM	–	> 100 µM	–	> 100 µM	–	> 100 µM	–	> 100 µM	–	–
O=C(O)C1=C(O)C(C(=O)O)C23CCCCCCCCCCC12C(C(=O)O)C(O)=C3C(=O)O (stereo not drawn)	–	> 100	–	> 100 µM	–	> 100 µM	–	> 100 µM	–	> 100 µM	–	> 100 µM	–	–	–	> 100 µM	–	–	–	> 100 µM
C=C1C(=O)O[C@H]2[C@H]1CC/C(COC(=O)CSCSCC(=O)OC/C1=C/CC[C@@]3(C)O[C@H]3[C@H]3OC(=O)C(=C)[C@@H]3CC1)=C\CC[C@@]1(C)O[C@@H]21	1.6	3.38	5.1	16.5 µM	2100	4.86 µM	1930	3.77 µM	1.65	3.85 µM	–	–	2.59	8.38 µM	1480	3.2 µM	590	1.93 µM	1.95	4.33 µM
Cc1cc(CC(=O)NCCO)n(CCO)c(=O)c1	–	–	–	–	–	> 100 µM	–	> 100 µM	–	> 100 µM	–	> 100 µM	–	> 100 µM	–	> 100 µM	–	> 100 µM	–	> 100 µM
CCOc1cccc(/C=N/N=C2\C(=O)Nc3c(Cl)cc(Cl)cc32)c1O	–	> 100	–	> 100 µM	–	> 100 µM	–	> 100 µM	–	> 100 µM	–	> 100 µM	–	> 100 µM	–	–	–	> 100 µM	–	> 100 µM
C=C(C)[C@@H]1CC[C@]2(C)CC[C@]3(C)[C@H](CC[C@@H]4[C@@]5(C)CC[C@H](O)C(C)(C)[C@@H]5CC[C@]43C)[C@@H]12	–	> 100	–	–	–	> 100 µM	–	> 100 µM	–	> 100 µM	–	> 100 µM	–	> 100 µM	–	55.7 µM	–	> 100 µM	–	> 100 µM
N#Cc1ccc(OCc2nc(N)nc(N)c2-c2ccc(Cl)c(Cl)c2)cc1	–	–	4.72	> 100 µM	377	14.1 µM	2850	84.5 µM	2.79	> 100 µM	554	24.4 µM	5.21	> 100 µM	2970	19.9 µM	552	> 100 µM	0.724	13.2 µM
O=C1N(C2CCCCC2)CC12CCCCC2	–	> 100	–	> 100 µM	–	> 100 µM	–	–	–	> 100 µM	–	> 100 µM	–	> 100 µM	–	> 100 µM	–	> 100 µM	–	> 100 µM
COc1ccc(/C=C/C(=O)c2cc(OC)c(OC)c(OC)c2)cc1OCc1cn(Cc2ccc(F)cc2)nn1	–	–	–	–	3300	15.4 µM	3140	18.2 µM	3.12	> 100 µM	3310	9.07 µM	2.14	6.18 µM	1740	5.22 µM	2380	10.7 µM	3.24	13.3 µM
COC(=O)NC(=O)c1cn(C2OC(CO)C(O)C2O)c(=O)[nH]c1=O (stereo not drawn)	–	–	–	> 100 µM	–	> 100 µM	–	> 100 µM	–	> 100 µM	–	> 100 µM	–	> 100 µM	–	> 100 µM	–	> 100 µM	–	–
